# Laboratory results reported in EP1038864A1, “NOVEL METALLOPROTEINASE INHIBITORS” (FUJI YAKUHIN KOGYO KABUSHIKI KAISHA, priority 1997, dated 1999).
# Where two headings read alike, the source gives them in different places.
# Assays:
# [1] = rat, in vivo, po, 100 mg/kg, 4 h
# Description: (§2) Each compound of the present invention was dissolved in distilled water for injection and orally administered to rats (Lewis strain line, male, body weight: about 200 g) at a dose of 100mg/kg. From 30 minutes to 4 hours after the administration, a series of blood chronologically collected from rat fundus oculi were centrifuged (3000rpm for 10 minutes at 4°C) to give plasma samples. Each plasma sample (200 µl) was filtered through an ultrafiltration membrane by centrifugation at 1500 x G for 3 minutes using a micropartition UF unit (Centrifree-MPS-3: 30,000 MW cut-off, Amicon Corp., Beverly, MA). […] The reaction was stopped by adding 900 µl of 3% aqueous acetic acid to the reaction mixture. The fluorescence of the resulting solution was read using an excitation wavelength of 325 nm and an emission wavelength of 393 nm. The concentration of each test compound in rat plasma samples was calculated using a standard curve which was prepared based on a variety of doses.
# [2] = Assay for Oral Absorption in Rat (plasma level by MMP-3 inhibition bioassay)
# Description: as §2
# [3] = biological target: human fibroblast stromelysin (Homo sapiens, UniProt P08254); test: Assay for inhibition of stromelysin (fluorescein-labeled casein substrate); format: biochemical
# Description: (§1) Described below are assays for biological activities of the compounds according to the present invention, formulations, dosage forms and dosage levels thereof, and miscellaneous matters. The efficacy of the compounds represented by the formula (I) according to the present invention as inhibitors of human fibroblast collagenase (metalloproteinase involved in the breakdown of tissues) is determined by a procedure based on the method of Y. Murawaki et al., Journal of Hepatology, 18, p328-334 (1993). The efficacy of the compounds (I) of this invention as inhibitors of human fibroblast stromelysin is determined by a procedure based on the method of S. S. Twining, Anal. Biochem., 143, p30 (1984). The assay results obtained are shown hereinbelow, together with biological examples which illustrate embodiments of the assay protocols.
# The efficacy of compounds of the present invention to act as inhibitors of human fibroblast stromelysin was determined by the procedure of Twining (Anal. Biochem., 143, p.30, 1984), compared with a reference compound.
# Prostromelysin was activated by incubation with 20 µg/ml human plasmin at 37°C for 2 hours, and the reaction was stopped by addition of 2.8 mg/ml aqueous diisopropyl fluorophosphate. The inhibition was assayed using, as a substrate, fluorescein-labeled casein. To a solution of the substrate (1 mg/ml) in a 50 mM Tris-HCl buffer, pH 7.8, containing 10mM aqueous calcium chloride was added the activated stromelysin. The resultant solution was incubated at 37°C for 2 hours. The digestion of the substrate with the enzyme was stopped by addition of 5% trichloroacetic acid. Undigested substrates were precipitated by centrifugation at 3000 x g for 20 minutes. The supernatant was collected, followd by additon of a 0.5M Tris-HCl buffer, pH 8.5. The fluorescence was read using an excitation wavelength of 495 nm and an emission wavelength of 520 nm. The inhibitory potency of the compounds was calculated. […] The resulting assay data for representative examples are shown in Table 2, compared with the reference compound.
# [4] = biological target: TNF-α Convertase (Homo sapiens, UniProt P78536); test: Assay for inhibition of TNF-α production in LPS-stimulated, PMA-differentiated U937 cells
# [5] = biological target: T1, human fibroblast collagenase (Homo sapiens, UniProt P03956); test: Assay for inhibition of collagenase (fluorescein-labeled bovine type I collagen substrate); format: biochemical; settings: activated human fibroblast procollagenase, 35°C, 2 hours, pH 7.5; read-out: Inhibition of MMP-1
# T1 sequence (P03956 100-469): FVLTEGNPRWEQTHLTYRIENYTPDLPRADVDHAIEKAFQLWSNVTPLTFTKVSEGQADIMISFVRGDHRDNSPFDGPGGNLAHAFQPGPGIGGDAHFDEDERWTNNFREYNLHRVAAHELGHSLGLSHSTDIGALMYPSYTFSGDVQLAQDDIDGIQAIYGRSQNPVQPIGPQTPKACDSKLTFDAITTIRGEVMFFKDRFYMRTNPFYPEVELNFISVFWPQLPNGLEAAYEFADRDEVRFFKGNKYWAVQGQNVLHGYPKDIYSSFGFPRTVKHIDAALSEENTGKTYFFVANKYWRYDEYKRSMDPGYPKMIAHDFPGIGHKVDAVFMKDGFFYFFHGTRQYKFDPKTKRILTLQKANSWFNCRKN
# Description: as §1
# The efficacy of compounds of the present invention to act as inhibitors of human fibroblast collagenase was determined by the procedure of Y. Murawaki et al. (Journal of Hepatology, 18, p.328-334, 1993), compared with a reference compound.
# Procollagenase was activated by incubation with 2 mM 4-aminophenylmercuric acetate (APMA) at 35°C for 2 hours. The inhibition was assayed using, as a substrate, fluorescein-labeled bovine type I collagen. To a solution of the substrate (0.5 mg/ml) in a 50 mM Tris-HCl buffer, pH 7.5, containing 0.4M aqueous sodium chloride and 10 mM aqueous […] was added the activated collagenase. The resultant solution was incubated at 35°C for 2 hours. The digestion of the substrate with the enzyme was stopped by addition of 80 mM o-phenanthroline, followed by addition of a porcine elastase solution formed by dissolving 25 µg/ml porcine elastase in the aforementioned Tris-HCl buffer. The mixture was incubated at 37°C for 10 minutes. To the resulting solution was added 70% ethanol, and a 170 mM Tris-HCl buffer, pH 9.5, containing 0.67M aqueous sodium chloride. Undigested substrates were precipitated by centrifugation at 3000 x g for 20 minutes. The supernatant was collected and the fluorescence was read using an excitation wavelength of 495 nm and an emission wavelength of 520 nm. The inhibitory potency of the compounds was calculated. […] The resulting assay data for representative examples are shown in Table 1, compared with the reference compound. […]
# [6] = in vivo; settings: rat, po, 100 mg/kg
# Description: as §2
# [7] = plasmin-activated human fibroblast prostromelysin, 37°C, 2 hours, pH 7.8, read-out: Inhibition of MMP-3
# [8] = read-out: Inhibition of TACE, U937 cells, LPS 0.1 µg/ml, 6 hours, TNF-α in supernatant by assay kit
# [9] = read-out: Inhibition of MMP-3, plasmin-activated human fibroblast prostromelysin, 37°C, 2 hours, pH 7.8
# Chain of TNF-α Convertase (P78536 215-824): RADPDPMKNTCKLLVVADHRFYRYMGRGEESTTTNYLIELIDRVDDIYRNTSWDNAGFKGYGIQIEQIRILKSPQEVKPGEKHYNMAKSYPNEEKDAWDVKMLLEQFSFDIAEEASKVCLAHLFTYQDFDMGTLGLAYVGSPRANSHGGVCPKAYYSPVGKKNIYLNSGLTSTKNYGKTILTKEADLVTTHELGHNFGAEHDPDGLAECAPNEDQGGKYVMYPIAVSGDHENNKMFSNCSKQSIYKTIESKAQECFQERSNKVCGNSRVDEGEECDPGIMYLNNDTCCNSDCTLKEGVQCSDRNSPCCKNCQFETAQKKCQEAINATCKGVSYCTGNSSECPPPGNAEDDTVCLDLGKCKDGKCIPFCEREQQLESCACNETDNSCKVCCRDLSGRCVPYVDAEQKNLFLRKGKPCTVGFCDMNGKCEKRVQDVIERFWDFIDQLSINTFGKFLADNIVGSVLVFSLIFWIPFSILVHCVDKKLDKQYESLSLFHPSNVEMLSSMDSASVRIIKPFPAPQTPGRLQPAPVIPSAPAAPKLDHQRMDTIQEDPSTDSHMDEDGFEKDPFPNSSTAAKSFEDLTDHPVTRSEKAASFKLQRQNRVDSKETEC
# Chain of human fibroblast stromelysin (P08254 100-477): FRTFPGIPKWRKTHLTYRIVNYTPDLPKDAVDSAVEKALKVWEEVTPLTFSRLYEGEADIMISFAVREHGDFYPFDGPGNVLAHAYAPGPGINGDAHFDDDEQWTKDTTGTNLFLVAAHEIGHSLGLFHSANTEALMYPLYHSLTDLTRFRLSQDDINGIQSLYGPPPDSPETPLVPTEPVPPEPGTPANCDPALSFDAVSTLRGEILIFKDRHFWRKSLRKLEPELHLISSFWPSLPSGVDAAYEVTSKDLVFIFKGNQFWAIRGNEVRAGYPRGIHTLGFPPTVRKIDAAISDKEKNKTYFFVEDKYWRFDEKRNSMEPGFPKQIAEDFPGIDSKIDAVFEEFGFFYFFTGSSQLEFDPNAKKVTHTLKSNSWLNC
compound,measurement,setting,value
"CC(=N)NCCCC[C@H](NC(=O)[C@H](CC(C)C)C(C)C(=O)NO)C(=O)NC(C)CO.CC(=O)O (mixture of isomers) [Compound No. 39, N^a-[4-(Hydroxyamino)-2(R)-isobutyl-3(RS)-methylsuccinyl]-N^e-acetimidoyl-L-lysine N-[2-hydroxy-1(RS)-methylethyl]amide · 1 acetate]",AUC0.5-4,[1],14996 ng·h/mL
"CC(=O)O.CCC(=N)NCCCC[C@H](NC(=O)[C@H](CC(C)C)C(C)C(=O)NO)C(=O)NC (mixture of isomers) [Compound No. 45, N^a-[4-(Hydroxyamino)-2(R)-isobutyl-3(RS)-methylsuccinyl]-N^e-propionimidoyl-L-lysine N-methylamide · 1 acetate]",AUC0.5-4,"[2]; rats (Lewis, male), orally, 100mg/kg, 0.5 to 4 hours after administration",7067 ng·h/mL
"CC(=N)NCc1ccc(CC(NC(=O)C(CC(C)C)C(C)C(=O)NO)C(=O)NN2CCOCC2)cc1 (single isomer, unassigned) [Compound No. 42, N^a-[4-(Hydroxyamino)-2(R)-isobutyl-3(R or S)-methylsuccinyl]-4'-acetimidoyliminomethyl-L-phenylalanine N-(morpholin-4-yl)-amide · 1 acetate]",IC50,[3]; [7],24 nM
same,AUC,"[2]; male, Lewis, rat, po, 100 mg/kg",6260 ng·h/mL
"CC(=O)O.CC(=O)O.CNC(=O)[C@H](CCCN)NC(=O)[C@H](CC(C)C)C(Cc1ccc(CN)cc1)C(=O)NO (single isomer, unassigned) [Compound No. 48, N^a-[4-(Hydroxyamino)-2(R)-isobutyl-3(R or S)-(p-aminomethylbentyl)succinyl]-L-ornithine N-methylamide· 2 acetate]",AUC0.5-4,[1],20203 ng·h/mL
"CC(=O)O.CC(=O)O.CNC(=O)[C@H](Cc1ccc(CN)cc1)NC(=O)[C@H](CC(C)C)C(Cc1ccc(CN)cc1)C(=O)NO (single isomer, unassigned) [Compound No. 49, N^a-[4-(Hydroxyamino)-2(R)-isobutyl-3(R or S)-(p-aminomethylbenzyl)succinyl]-4'-aminomethyl-L-phenylalanine N-methylamide · 2 acetate]",AUC0.5-4,[1],15292 ng·h/mL
"CNC(=O)C(CCCNC(=N)N)NC(=O)C(CC(C)C)C(Cc1ccc(CNS(=O)(=O)c2ccc(C)cc2)cc1)C(=O)NO (single isomer, unassigned) [Compound No. 50, N^a-[4-(Hydroxyamino)-2(R)-isobutyl-3(R or S)-[p-(p-toluenesulfonamidomethyl)benzyl]succinyl]-L-arginine N-methylamide · 1 acetate]",IC50,[4],599 nM
same,IC50,[3]; [7],9 nM
same,IC50,[5],13 nM
"CNC(=O)C(CCCNC(=N)N)NC(=O)C(CC(C)C)C(Cc1ccc(CN2C(=O)c3ccccc3C2=O)cc1)C(=O)NO (single isomer, unassigned) [Compound No. 51, N^a-[4-(Hydroxyamino)-2(R)-isobutyl-3(R or S)-(p-phthalimidomethylbenzyl)succinyl]-L-arginine N-methylamide · 1 acetate]",IC50,[4],426 nM
same,IC50,[3]; [7],2 nM
same,IC50,[5],9 nM
"CC(=O)O.CNC(=O)[C@H](C)NC(=O)[C@H](CC(C)C)C(Cc1cccc(CN)c1)C(=O)NO (single isomer, unassigned) [Compound No. 53, N^a-[4-(Hydroxyamino)-2(R)-isobutyl-3(R or S)-(m-aminomethylbenzyl)succinyl]-L-alanine N-methylamide · 1 acetate]",AUC0.5-4,[1],4816 ng·h/mL
"CNC(=O)[C@H](CCCCN)NC(=O)[C@H](CC(C)C)C(CCCc1ccc(CN)cc1)C(=O)NO (single isomer, unassigned) [Compound No. 61, N^a-[4-(Hydroxyamino)-2(R)-isobutyl-3(R or S)-(3-(p-aminomethylphenyl)propyl]succinyl]-L-lysine N-methylamide· 2 acetate]",IC50,[4]; [8],1100 nM
same,IC50,[3]; [9],23 nM
same,AUC at 4 h,[6],13800 ng·h/mL
"CCCCOCCC(C(=O)NO)[C@@H](CC(C)C)C(=O)N[C@@H](CCCCN)C(=O)NC (single isomer, unassigned) [Compound No. 69, N^a-[4-(Hydroxyamino)-2(R)-isobutyl-3(R or S)-(2-n-butyloxyethyl)succinyl]-L-lysine N-methylamide· 1 acetate]",IC50,[3]; [9],20 nM
same,AUC at 4 h,[6],3340 ng·h/mL
"CNC(=O)[C@H](CCCCN)NC(=O)[C@H](CC(C)C)C(CCCc1ccc(O)cc1)C(=O)NO (single isomer, unassigned) [Compound No. 72, N^a-[4-(Hydroxyamino)-2(R)-isobutyl-3(R or S)-[3-(p-hydroxyphenyl)propyl]succinyl]-L-lysine N-methylamide· 1 acetate]",IC50,[4],250 nM
same,AUC at 4 h,[6],4040 ng·h/mL
"CNC(=O)[C@H](CCCCN)NC(=O)[C@H](C(C)C)C(CCCc1ccccc1)C(=O)NO (single isomer, unassigned) [Compound No. 74, N^a-[4-(Hydroxyamino)-2(R)-isopropyl-3(R or S)-(3-phenylpropyl)succinyl]-L-lysine N-methylamide· 1 acetate]",IC50,[4]; [8],603 nM
same,IC50,[3]; [9],62 nM
same,AUC at 4 h,[6],9020 ng·h/mL
"CNC(=O)C(Cc1ccc(CN)cc1)NC(=O)C(CC(C)C)C(C)C(=O)NO [Compound No. 23, N^a-[4-(Hydroxyamino)-2(R)-isobutyl-3(RS)-methylsuccinyl]-4'-aminomethyl-L-phenylalanine N-methylamide · 1 acetate]",IC50,[4],1190 nM
same,IC50,[3],16 nM
same,AUC at 4 h,[6],4760 ng·h/mL
"CC(=O)O.CNC(=O)[C@H](Cc1ccc(CNC(C)=N)cc1)NC(=O)[C@H](CC(C)C)[C@H](O)C(=O)NO [Compound No. 43, N^a-[4-(Hydroxyamino)-2(R)-isobutyl-3(S)-hydroxysuccinyl]-4'-acetimidoyliminomethyl-L-phenylalanine N-methylamide · 1 acetate]",AUC0.5-4,[1],3289 ng·h/mL
"CC(=N)NCCCCC(NC(=O)C(CC(C)C)C(CCCc1ccccc1)C(=O)NO)C(=O)NCCN(C)C [Compound No. 44, N^a-[4-(Hydroxyamino)-2(R)-isobutyl-3(RS)-(3-phenylpropyl)-succinyl]-N^e-acetimidoyl-L-lysine N-(2-N',N'-dimethylaminoethyl)amide · 2 acetate]",IC50,[4],129 nM
same,IC50,[3],17 nM
same,AUC at 4 h,[6],1930 ng·h/mL
"CNC(=O)[C@@H](NC(=O)[C@H](CC(C)C)[C@H](O)C(=O)NO)C(C)(C)C [Reference Compound No. 2, reference compound]",AUC at 4 h,[6],1570 ng·h/mL
N^a-[4-(Hydroxyamino)-2(R)-isobutyl-3(R or S)-[5-(isopropylimino)pentyl]succinyl]-L-alanine N-methylamide [Compound No. 63],AUC0.5-4,[1],5662 ng·h/mL
